{
  "source": "paper PMC11874377",
  "about": "“Fungal-derived methyldeoxaphomins target Plasmodium falciparum segregation through the inhibition of PfActin1” (Proceedings of the National Academy of Sciences of the …, 2025)",
  "key": {"[1]": {"tested_on": "P. falciparum", "test": "Parasite reduction ratio (PRR)", "type": "cell-based, Plasmodium falciparum", "details": "10 × EC50", "protocol": "After a 24 h lag phase, only 10^0.64 parasites are killed within the first replication cycle (48 h). […] We also examined the in vitro killing rate in Dd2 through flow cytometric analysis. […]\nParasite reduction ratio adapted from protocol by Sanz et al (Sanz et al., 2012). In brief, early ring stage mono-infected RBCs at 106 were incubated with a 10 x EC50 concentration of NPDG-F, DHA, or atovaquone for either 24, 48, 72, 96, or 120 h. Following incubations, cells were washed and serially diluted. After 3 weeks, growth was determined via SYBR […]\nGreen I staining. […]"}, "[2]": {"tested_on": "P. falciparum multidrug resistant line Dd2", "test": "SYBR Green I-based antiplasmodial assay, asexual blood stage, Dd2", "type": "cell-based, Plasmodium falciparum", "protocol": "(§1) The antiplasmodial activity of these analogs was assessed in P. falciparum asexual blood stage using a SYBR Green I-based assay. Compounds were tested in both the multidrug resistant line Dd2, and the chloroquine-sensitive line 3D7, to probe any potential for preexisting resistance. […] These methyldeoxaphomin analogs were also cross-screened for cytotoxicity in the human cell line HepG2 to determine their selectivity for the Plasmodium parasite. […] This effect was maintained with analog NPDG-F where both R1 and R2 were substituted with OH groups. […] In addition, the hydroxyl group at carbon 7 seems to be critical for function as a drastic loss of potency was found in NPDG-D as compared to B and C. […]\n(§2) Plasmodium blood stage culture\n(§3) Parasite culture in the Chakrabarti lab was maintained following a modified Trager and Jensen protocol (Trager & Jensen, 1976) as previously described (Lee et al., 2021) with RPMI 1640 with 25 mM HEPES pH 7.4, 26 mM NaHCO3, 15 mg/L hypoxanthine, 0.5% Albumax II, 25 mg/L gentamycin, and 2% dextrose. Parasites were grown with human A+ erythrocytes obtained from Florida OneBlood. Cultures were kept in an incubator with 5% […]\n(§4) Antiplasmodial activity screening\n(§5) SYBR Green I-based fluorescence assay was performed as previously described (Lee et al., 2021) following protocols by Smilkstein et. al. (Smilkstein et al., 2004). Asynchronous Dd2 parasites were added to serially diluted compounds and incubated for 72 h at 5% CO2, 95% air at 37°C. Plates were then frozen at -80°C, thawed, and incubated for one hour with 1x SYBR Green I in a lysis buffer (20 mM Tris-HCL, 0.08% saponin, 5 mM EDTA, and 0.8% Triton X-100). Fluorescence was then read on a Synergy Neo2 multimode reader (BioTek Winsooki, VT). […]"}, "[3]": {"tested_on": "P. falciparum chloroquine-sensitive line 3D7", "test": "SYBR Green I-based antiplasmodial assay, asexual blood stage, 3D7", "type": "cell-based, Plasmodium falciparum", "protocol": "as §1, §2, §3, §4, §5"}, "[4]": {"tested_on": "P. berghei liver stage in HepG2 cells", "test": "High content imaging liver stage screening", "type": "cell-based, Plasmodium berghei", "protocol": "Given these findings, we sought to observe the effects of NPDG-F on hepatic merozoites to see whether they were similarly impacted. To this end, HepG2 cells were infected with P. berghei sporozoites expressing luciferase and seeded onto a microtiter plate with NPDG-F at 2 HPI. At 72 HPI, a high content imaging (HCI) readout of treated parasites was performed to observe the impact on parasite maturation and merozoite formation via the expression of liver stage maturation markers MSP1 and AMA1. […] Infected monolayers treated with 1.1 µM of methyldeoxaphomin NPDG-F from 2-55 HPI were immunolabeled to examine the localization of MSP1 and AMA1 relative to parasite DNA during the period of merozoite formation (Fig. 4G). […]\nParasite reduction ratio adapted from protocol by Sanz et al (Sanz et al., 2012). […] After 3 weeks, growth was determined via SYBR Green I staining. The PRR was calculated and graphed using Graphpad Prism version […]\nTo examine the impact of methyldeoxaphomin NDPG F on the Plasmodium liver stage, HepG2 cells were infected with a luciferase-expressing strain of P. berghei. […] At 48 HPI, luciferase expression was measured as described(Van Voorhis et al., 2016) and parasite growth was quantified. After 72 HPI, High content imaging was performed to observe the relative expression of MSP1 and AMA1, the size and quantity of exoerythrocytic form parasites, and the HepG2 area occupied. […]"}},
  "note": "“And” between values parts separate entries of the source, which are not always exact repeats. Identical values can stand only once. Like-named read-outs stand apart in the source and are kept apart here.",
  "data": [
    {"smiles": "C=C1C(C)C2C(Cc3ccccc3)NC(=O)C23C(=O)C=CC(O)C(O)C(C)CC(C)CC=CC3C1O", "note": "(stereo not shown) [Methyldeoxaphomin NPDG-F]", "values": [
      {"measurement": "99.9% PCT (parasite clearance time)", "setting": "[1]", "result": "more than 96 h"},
      {"measurement": "killing profile", "setting": "[1]", "result": "gradual killing profile"},
      {"measurement": "lag phase", "setting": "[1]", "result": 24, "unit": "h"},
      {"measurement": "log(PRR)", "setting": "[1]", "result": 0.64},
      {"measurement": "EC50", "setting": "[2]; Plasmodium falciparum, DD2, 72 h, read-out: Dd2 EC50, means from triplicate experiments ± SEM, 72 h", "result": 550, "unit": "nM"},
      {"measurement": "EC50", "setting": "[2]; Plasmodium falciparum, DD2, read-out: Dd2: Average EC50, average ± SEM of three replicates", "result": "550 ± 40", "unit": "nM"},
      {"measurement": "EC50", "setting": "[2]; Plasmodium falciparum, DD2, read-out: Dd2: EC50, individual replicates", "result": 500, "unit": "nM"},
      {"measurement": "EC50", "setting": "[2]; Plasmodium falciparum, DD2, read-out: EC50 in Dd2, abstract", "result": 550, "unit": "nM"},
      {"measurement": "EC50", "setting": "[2]; read-out: Dd2: EC50, individual replicates", "result": 580, "unit": "nM"},
      {"measurement": "EC50", "setting": "[3]; Plasmodium falciparum, 3D7, abstract, read-out: EC50 in 3D7", "result": 290, "unit": "nM"},
      {"measurement": "EC50", "setting": "[3]; Plasmodium falciparum, 3D7, average ± SEM of three replicates, read-out: 3D7: Average EC50", "result": "290 ± 30", "unit": "nM"},
      {"measurement": "EC50", "setting": "[3]; Plasmodium falciparum, 3D7, individual replicates, read-out: 3D7: EC50", "result": 230, "unit": "nM"},
      {"measurement": "EC50", "setting": "[3]; Plasmodium falciparum, 3D7, means from triplicate experiments ± SEM, read-out: 3D7 EC50", "result": "290 ± 30", "unit": "nM"},
      {"measurement": "EC50", "setting": "[3]; individual replicates, read-out: 3D7: EC50", "result": "310 nM and 330 nM"},
      {"measurement": "effect on liver-stage parasite development", "setting": "[4]; 1.1 µM from 2-55 HPI", "result": "developmental failure during schizogony"},
      {"measurement": "MSP1 positive exoerythrocytic form (EEF) parasites remaining in the monolayer", "setting": "[4]; 72 HPI, added at 2 HPI", "result": "sharp increase"}
    ]}
  ]
}
